Source: ChEMBL document CHEMBL1150439, “Synthesis and evaluation of dual domain macrocyclic FKBP12 ligands” (Bioorg Med Chem Lett, 1994)

The molecules below were run against Peptidyl-prolyl cis-trans isomerase FKBP1A (Homo sapiens, UniProt P62942) (assay: Binding affinity towards FK506 binding protein 12 as measured by displacement of a radiolabeled FK506 analogue).
Chain of Peptidyl-prolyl cis-trans isomerase FKBP1A (P62942 whole entry): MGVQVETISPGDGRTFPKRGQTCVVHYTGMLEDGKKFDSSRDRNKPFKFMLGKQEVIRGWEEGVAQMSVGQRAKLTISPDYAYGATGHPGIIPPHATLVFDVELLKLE

Row | SMILES | Kd
1 | C=CCC1/C=C(\C)CCOC(=O)OC(=O)CCCC(=O)C(=O)OC(=O)C(=O)N2CCCC[C@H]2C(=O)O[C@H](CCc2cccnc2)[C@H](C)CCC1=O (some centres not stated) | 2 µM
2 | C=CCC1/C=C(\C)CCOC(=O)OC(=O)CCCCC(=O)C(=O)OC(=O)C(=O)N2CCCC[C@H]2C(=O)O[C@H](CCc2cccnc2)[C@H](C)CCC1=O (some centres not stated) | 4.5 µM
3 | C=CCC1/C=C(\C)CCOC(=O)OC(=O)CCC(=O)C(=O)OC(=O)C(=O)N2CCCC[C@H]2C(=O)O[C@H](CCc2cccnc2)[C@H](C)CCC1=O (some centres not stated) | 5.5 µM
4 | C=CCC1/C=C(\C)CCCOC(=O)OC(=O)C2CC[C@@](C)(O2)C(=O)C(=O)C(=O)OC(=O)C(=O)N2CCCC[C@H]2C(=O)O[C@H](CCc2cccnc2)[C@H](C)CCC1=O (some centres not stated) | 4 µM
5 | C=CCC1/C=C(\C)CCCOC(=O)OC(=O)C2CC[C@@H](O2)C(=O)C(=O)C(=O)OC(=O)C(=O)N2CCCC[C@H]2C(=O)O[C@H](CCc2cccnc2)[C@H](C)CCC1=O (some centres not stated) | 0.2 µM
6 | C=CCC1/C=C(\C)CCOC(=O)OC(=O)C2CC[C@@H](O2)C(=O)C(=O)C(=O)OC(=O)C(=O)N2CCCC[C@H]2C(=O)O[C@H](CCc2cccnc2)[C@H](C)CCC1=O (some centres not stated) | 0.4 µM
7 | C=CCC1/C=C(\C)CCOC(=O)OC(=O)C2CC[C@@](C)(O2)C(=O)C(=O)C(=O)OC(=O)C(=O)N2CCCC[C@H]2C(=O)O[C@H](CCc2cccnc2)[C@H](C)CCC1=O (some centres not stated) | 8 µM
